This note sets out measurements from patent publication US20070099982A1, “Use of chp as an inhibitor of glutathione s-transferases and collagen IV” (priority 2003, published 2007).

The subject of one assay is collagen IV. To be noted: mean of 12 healthy subjects, 4×2 g CHP per day over 14 days. From the text:
CHP was repeatedly administered over 14 days, using 4×2 g of CHP per day.

Assay [1] concerns α-glutathione S transferase. To be noted: mean of 12 healthy subjects, 4×2.0 g CHP/day over 14 days.

Read-outs that look alike come from different tables or passages of the source.

In the case of `O=C(O)[C@@H]1C[C@@H](O)CN1` (relative stereo) [CHP, cis-hydroxy-L-proline], the “Concentration of collagen IV in serum, MEAN” value in the assay on collagen IV (day 0) came to 115.39; in the assay on collagen IV (day 7), 93.03; in the assay on collagen IV (day 13) it was 99.79; in the assay on collagen IV (day 13.25), 92.87; in the assay on collagen IV (day 14), 97.77; in the assay on collagen IV (day 17), 93.45. In addition, the “Concentration of α-glutathione S transferase in serum, MEAN” value in assay [1] (day 0) is 0.46; in assay [1] (day 7), 0.37; in assay [1] (day 13), 0.26; in assay [1] (day 13.25), 0.20; in assay [1] (day 14), 0.21; in assay [1] (day 17), 0.18.
